Measured values reported in US20040191254A1, “Method of treatment of thyroid cancer” (priority 2001, published 2004).
Entries after “also recorded” stand apart in the source; their conditions may differ.

What was measured:
RET/PTC3 = target: T1, RET/PTC3 (Homo sapiens, UniProt P07949); test: RET/PTC autophosphorylation, in vitro immunokinase assay of RET-IP extracts from RET/PTC3-5 cells; type: biochemical; details: RET-IP extracts from RET/PTC3-5 cells treated with doxycycline for 48 h
T1 construct: expressed in transfected cells; host or cells: PCCL3 thyroid cell line (clone RET/PTC3-5), doxycycline-inducible expression
T1 sequence (P07949 with tags, fused parts or gaps): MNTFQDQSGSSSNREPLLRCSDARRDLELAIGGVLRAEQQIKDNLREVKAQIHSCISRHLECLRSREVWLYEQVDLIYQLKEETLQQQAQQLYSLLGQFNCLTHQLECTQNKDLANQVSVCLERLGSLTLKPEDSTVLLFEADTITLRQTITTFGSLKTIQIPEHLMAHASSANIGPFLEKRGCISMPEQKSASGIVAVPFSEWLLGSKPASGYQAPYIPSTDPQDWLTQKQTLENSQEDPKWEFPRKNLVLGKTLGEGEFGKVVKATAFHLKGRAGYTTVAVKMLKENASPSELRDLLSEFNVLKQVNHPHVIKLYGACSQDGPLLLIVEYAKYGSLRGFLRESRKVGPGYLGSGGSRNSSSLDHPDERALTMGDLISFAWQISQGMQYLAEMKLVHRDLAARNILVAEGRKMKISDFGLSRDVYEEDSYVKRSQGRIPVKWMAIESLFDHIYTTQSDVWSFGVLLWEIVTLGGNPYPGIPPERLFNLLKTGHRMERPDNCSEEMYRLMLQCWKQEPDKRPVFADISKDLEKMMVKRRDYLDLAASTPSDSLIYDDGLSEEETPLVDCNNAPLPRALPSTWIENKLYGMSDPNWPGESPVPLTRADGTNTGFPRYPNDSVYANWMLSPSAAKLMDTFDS
From the text: In order to explore the activity of a compound which decreases the activity of the EGF on RET kinase, for example, a well-differentiated clonal thyroid cell line, PCCL3, conditionally expressing either RET/PTC3 or RET/PTC1 in a tetracyclin (doxycyclin)-dependent manner as described below can be used. The activation of expression of RET/PTC1 or 3 results in dimerization, autophosphorylation, and association with a number of signaling intermediates including Shc and PLCγ. […]
Confluent T-75 flasks are washed with ice cold PBS containing 0.2 mM sodium ortho-vanadate, Cells are then lysed with cold RIPA buffer 1.8 ml (20 mM Tris, pH 7.4, 150 mM NaCl, 1% Nonidet P-40, 1% Tween 20, 20 mM sodium fluoride, 1 mM sodium ortho-vanadate, 1 mM EGTA, […], 0.2 mM PMSF, with Sigma Protease inhibitor mix) with constant agitation at 4 C for 20 min. […] Proteins are subjected to SDS-PAGE gel (7.5%), their phosphorylation measured by Phosphorimager densitometry (Molecular Dynamics, Sunnyvale, Calif.) after transfer to nitrocellulose membranes. Phosphorylation is then normalized to total RET protein in the IP determined by Western analysis using goat polyclonal anti-RET antibody (SantaCruz). […]

insulin receptor = target: T2, insulin receptor (Homo sapiens, UniProt P06213); test: Insulin receptor autophosphorylation, immunokinase assay of CHO-wt-IR cells; type: biochemical
T2 construct: expressed in transfected cells; host or cells: CHO-wt IR cells

NIH3T3-RETC634Y cells = test: Growth of NIH3T3 cells expressing constitutively active RET Cys634Tyr; type: cell-based; details: 20 nM or 30 nM for 9 days, 5% or 1% serum (FIG. 1)
Method: (§1) The indicated cell lines are allowed to plate overnight in 6-well plates (NIH3T3 cells at 5×10^4; 3T3-RETC634Y at 2×10^4). They are then grown in the presence of no PKI166, 20 nM PKI166 or 30 nM PKI166 for 9 days, with media changes every 3 days. Bars represent the X±SD of cell counts in 3 independent experiments. The first three columns show the results in NIH3T3-RetCys634Tyr in 5% serum, the next three columns show the results in NIH3T3-RetCys634Tyr in 1% serum and the last two columns the results in NIH3T3 in 5% serum (only vehicle and 30 nM PKI 166).
(§2) […] is the most common germine mutation of RET in multiple endocrine neoplasia type 2A stably expressing a constitutively active form of RET. NIH3T3-RETC634Y cells are transformed, as evidenced by growth in low serum conditions, colony formation in soft agar, and tumor formation in nude mice. […] PKI166 has no effect on growth of wild-type NIH3T3 cells grown in 5% serum (FIG. 1).

wild-type NIH3T3 cells = test: Growth of wild-type NIH3T3 cells; type: cell-based; details: 5% serum; 30 nM, 9 days (FIG. 1)
Method: as §1, §2

[1] = tested on: PLCγ phosphorylation by RET/PTC; test: Activation (phosphorylation) of PLCγ by RET/PTC in Ret-PTC3-5 cells; type: cell-based; details: Ret-PTC3-5 cells, doxycycline, inhibitor for 24 h; read-out: IC50 of inhibition of PLCγ phosphorylation
Method: Ret-PTC3-5 cells are seeded at 1×10^5 cells/well in 6-well Corning plates. After 3 days, cells are treated with or without doxycycline in the presence of the selected concentration of inhibitor dissolved in solvent for 24 h. Cells are rinsed twice with cold PBS containing 0.1 mM sodium orthovanadate, and left for 20 minutes in ice-cold RIPA buffer. Cell lysates are collected by centrifugation at 4C, and pelletted at 10,000×g for 20 min. Protein assays are performed on aliquots of supernatants by the Coomassie Blue assay (Pierce, Rockford, Ill.). 650 μg of protein are incubated with anti-PLC γ antibody (SantaCruz) or normal IgG overnight. The immune complexes are precipitated with proteinAG agarose (Santa Cruz) previously washed with RIPA buffer as described. After three washes with RIPA buffer, precipitates are eluted into 30 μl sample buffer, heated 10 min at 95 C, and ran on SDS-PAGE gel for Western blot analysis. Blots are initially probed with anti-phosphotyrosine. Loading is normalized by probing with anti-PLC γ antibody (SantaCruz).
It was shown before that upon activation, RET associates with and phosphorylates PLCγ. To further explore the effects of PKI166 on RET kinase activity, the impact of pretreatment with the compound on PLCγ phosphorylation is examined. When grown in the absence of doxycycline, there is no detectable PLCγ phosphorylation. […]

EGF-R = target: T3, EGF-R (Homo sapiens, UniProt P00533); test: EGF-R autophosphorylation, immunokinase assay of A431 cells; type: biochemical
T3 construct: The human squamous-cell carcinoma cell line A431 stably overexpressing the EGF-R; endogenous in cells; host or cells: A431 human squamous-cell carcinoma cells
T3 sequence (P00533 25-1210): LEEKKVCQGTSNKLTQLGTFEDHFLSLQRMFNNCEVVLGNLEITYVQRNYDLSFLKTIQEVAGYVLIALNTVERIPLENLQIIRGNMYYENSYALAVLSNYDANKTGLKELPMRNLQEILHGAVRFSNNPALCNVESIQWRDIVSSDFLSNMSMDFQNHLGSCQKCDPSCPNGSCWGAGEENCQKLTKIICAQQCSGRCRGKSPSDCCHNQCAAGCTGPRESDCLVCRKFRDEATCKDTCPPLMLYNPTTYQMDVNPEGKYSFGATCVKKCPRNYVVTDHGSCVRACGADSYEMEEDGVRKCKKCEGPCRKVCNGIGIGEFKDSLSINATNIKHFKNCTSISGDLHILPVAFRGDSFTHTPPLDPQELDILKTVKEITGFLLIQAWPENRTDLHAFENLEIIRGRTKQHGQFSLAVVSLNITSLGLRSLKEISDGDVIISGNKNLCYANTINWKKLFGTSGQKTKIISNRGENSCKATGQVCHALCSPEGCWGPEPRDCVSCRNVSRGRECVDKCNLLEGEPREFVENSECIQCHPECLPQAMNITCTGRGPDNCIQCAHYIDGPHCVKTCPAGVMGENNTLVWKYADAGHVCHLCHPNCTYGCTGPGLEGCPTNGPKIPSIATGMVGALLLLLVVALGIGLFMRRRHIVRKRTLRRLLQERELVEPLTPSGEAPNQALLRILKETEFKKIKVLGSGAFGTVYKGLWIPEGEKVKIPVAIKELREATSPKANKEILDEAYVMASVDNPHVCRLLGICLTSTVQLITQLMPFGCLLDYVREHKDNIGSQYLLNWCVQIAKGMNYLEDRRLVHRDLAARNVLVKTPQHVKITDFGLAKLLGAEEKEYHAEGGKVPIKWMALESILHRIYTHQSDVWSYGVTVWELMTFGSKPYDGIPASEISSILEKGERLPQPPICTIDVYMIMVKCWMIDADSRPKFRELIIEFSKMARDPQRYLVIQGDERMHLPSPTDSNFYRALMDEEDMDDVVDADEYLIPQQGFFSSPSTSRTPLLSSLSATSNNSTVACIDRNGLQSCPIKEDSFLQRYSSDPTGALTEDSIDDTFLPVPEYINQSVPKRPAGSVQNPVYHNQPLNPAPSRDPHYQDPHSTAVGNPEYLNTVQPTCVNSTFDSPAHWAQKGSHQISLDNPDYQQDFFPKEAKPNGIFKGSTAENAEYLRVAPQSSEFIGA

T2 sequence (P06213 28-1382, species assumed): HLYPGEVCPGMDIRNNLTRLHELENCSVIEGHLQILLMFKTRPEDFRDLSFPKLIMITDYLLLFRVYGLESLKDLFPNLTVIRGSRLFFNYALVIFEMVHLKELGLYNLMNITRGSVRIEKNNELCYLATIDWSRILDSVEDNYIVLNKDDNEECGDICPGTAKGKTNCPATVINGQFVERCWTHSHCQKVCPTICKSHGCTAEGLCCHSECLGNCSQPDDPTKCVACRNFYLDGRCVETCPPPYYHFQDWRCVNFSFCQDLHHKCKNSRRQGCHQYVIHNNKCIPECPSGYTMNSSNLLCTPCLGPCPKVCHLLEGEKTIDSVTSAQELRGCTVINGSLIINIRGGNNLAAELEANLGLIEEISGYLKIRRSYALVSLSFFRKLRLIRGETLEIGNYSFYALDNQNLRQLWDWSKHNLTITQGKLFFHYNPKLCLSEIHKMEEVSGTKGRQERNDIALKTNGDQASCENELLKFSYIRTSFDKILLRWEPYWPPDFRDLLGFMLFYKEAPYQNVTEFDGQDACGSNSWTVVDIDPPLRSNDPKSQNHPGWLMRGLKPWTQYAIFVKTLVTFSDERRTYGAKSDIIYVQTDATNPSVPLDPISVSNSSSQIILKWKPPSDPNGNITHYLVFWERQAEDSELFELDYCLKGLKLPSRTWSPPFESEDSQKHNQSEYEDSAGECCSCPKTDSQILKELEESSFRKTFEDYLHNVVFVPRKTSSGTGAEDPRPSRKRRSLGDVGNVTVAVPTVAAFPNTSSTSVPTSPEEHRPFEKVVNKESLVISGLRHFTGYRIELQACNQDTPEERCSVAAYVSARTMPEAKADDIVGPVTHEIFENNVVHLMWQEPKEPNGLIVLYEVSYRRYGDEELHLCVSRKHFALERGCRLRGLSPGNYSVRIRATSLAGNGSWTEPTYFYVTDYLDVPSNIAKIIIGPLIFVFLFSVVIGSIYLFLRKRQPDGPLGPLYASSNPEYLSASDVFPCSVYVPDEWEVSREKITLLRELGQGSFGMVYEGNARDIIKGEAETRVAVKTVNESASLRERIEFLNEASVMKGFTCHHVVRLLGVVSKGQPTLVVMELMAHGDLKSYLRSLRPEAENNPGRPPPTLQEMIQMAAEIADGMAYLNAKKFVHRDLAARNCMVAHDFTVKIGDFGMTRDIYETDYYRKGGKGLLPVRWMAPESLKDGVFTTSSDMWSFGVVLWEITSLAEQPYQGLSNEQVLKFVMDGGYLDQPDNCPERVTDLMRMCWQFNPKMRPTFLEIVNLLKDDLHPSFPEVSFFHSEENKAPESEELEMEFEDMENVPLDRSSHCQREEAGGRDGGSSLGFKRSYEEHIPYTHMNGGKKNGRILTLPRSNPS

IC50 (RET/PTC3): ~17.7 nM
effect on insulin receptor autophosphorylation (insulin receptor): no effects
IC50 [1]: ~4 nM
IC50 (EGF-R): 8 nM
Structure (SMILES): C[C@@H](Nc1ncnc2[nH]c(-c3ccc(O)cc3)cc12)c1ccccc1 [PKI166, (R)-6-(4-hydroxy-phenyl)-4-[(1-phenyl-ethyl)-amino]-7H-pyrrolo[2,3-d]-pyrimidine]
inhibition of cell growth of RET-transformed fibroblasts (NIH3T3-RETC634Y cells): inhibits the growth; also recorded: powerful, concentration dependent inhibition of cell growth
effect on growth of wild-type NIH3T3 cells (wild-type NIH3T3 cells): no effect
